Tests used:
[1] = system: CD46 cell surface expression, Du145 cells; test: CD46 cell surface expression by flow cytometry, Du145 cells; type: cell-based; conditions: 7 days; for CD46 cell surface expression (MFI): Du145 cells, 37° C.
Procedure: (§1) Methods: 22Rv1 and Du145 cells were exposed to varying concentrations of the Stat3 inhibitor C188-9 and the glucocorticoid receptor inhibitor mifepristone for 7-10 days at 37° C. in culture media, and cell surface CD46 expression is detected by flow cytometry using the anti-CD46 antibody YS5 followed by AlexaFluo-617 labeled anti-human Fc secondary antibody. MFI (median fluorescence intensity) was recorded and analyzed by Student t-test (for two group comparison) and One-way ANOVA (for group number >2).

[2] = system: CD46 cell surface expression, 22Rv1 cells; test: CD46 cell surface expression by flow cytometry using YS5, 22Rv1 cells; type: cell-based
Procedure: (§2) AR positive 22Rv1 cells were exposed to enzalutamide (5 μM) and CD46 cell surface expression was measured by flow cytometry using YS5. As a reference, prostate specific membrane antigen (PSMA) was also measured at the same time. […] MFI: median fluorescence intensity. See right portion of FIG. 1.
as §1

[3] = system: CD46 antigen density, LNCaP-C4-2B cells; test: CD46 antigen density by quantitative flow cytometry, LNCaP-C4-2B cells; type: cell-based; conditions: 10 μM, 7 days
From the text: CD46 antigen density was *p<0.05; **p<0.01 (p=0.0091), Student's test, duplicates.

[4] = system: CD46 cell surface expression, VCaP cells; test: CD46 cell surface expression by flow cytometry using YS5, VCaP cells; type: cell-based; conditions: AR positive VCaP cells, enzalutamide 5 μM, versus control cells
Procedure: AR positive VCaP cells were exposed to enzalutamide (5 μM) and CD46 cell surface expression was measured by flow cytometry using the YS5 antibody. MFI: median fluorescence intensity.

LNCaP-C4-2B xenografts = type: in vivo; conditions: mice with subcu LNCaP-C4-2B xenografts; 50 mg/kg daily for 4 weeks from day 10; single iv 3 mg/kg CD46 ADC on Day-14; 69 days
Procedure: An in vivo tumor implantation mouse model was studied to measure the effect of pre-treatment with enzalutamide followed by andi-CD46 ADC treatment. LNCaP-C4-2B cells were implanted in mice subcu on Day-0. Starting on day 10, the mice were administered with 50 mg/kg, daily, for 4 weeks. […] FIG. 7 depicts the survival rate of the mice.

[5] = system: prostate specific membrane antigen (PSMA), 22Rv1 cells; test: PSMA measured as reference by flow cytometry, 22Rv1 cells; type: cell-based; conditions: AR positive 22Rv1 cells, enzalutamide 5 μM
Procedure: as §2

[6] = system: CD46 cell surface antigen density, H660 cells; test: CD46 cell surface antigen density by quantitative flow cytometry, H660 cells; type: cell-based; conditions: AR-negative neuroendocrine H660 cells, 10 μM abiraterone
Procedure: The neuroendocrine prostate cancer cell line H660, which is AR-negative, was exposed to an ASI (in this case, 10 μM abiraterone), and CD46 cell surface antigen density was measured by quantitative flow cytometry. Over 2-fold increase of CD46 antigen density was found following ASI treatment.

[7] = target: T1, CD46 on the surface of prostate cancer cells (human, UniProt P15529 35-392); test: cell-based or functional assay
T1 sequence (looked up): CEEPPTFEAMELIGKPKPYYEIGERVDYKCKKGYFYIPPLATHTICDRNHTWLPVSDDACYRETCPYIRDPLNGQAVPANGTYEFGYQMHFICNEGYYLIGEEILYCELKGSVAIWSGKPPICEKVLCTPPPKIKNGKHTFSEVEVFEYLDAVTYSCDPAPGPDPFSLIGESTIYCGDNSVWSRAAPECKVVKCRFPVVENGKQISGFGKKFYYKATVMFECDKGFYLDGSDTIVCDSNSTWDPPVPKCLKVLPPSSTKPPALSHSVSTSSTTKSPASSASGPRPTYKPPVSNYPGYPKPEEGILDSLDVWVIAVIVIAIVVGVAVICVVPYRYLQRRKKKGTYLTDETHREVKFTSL

[8] = target: T1, CD46 on the surface of prostate cancer …; test: flow cytometry on VCaP and 22Rv1 cells (figure legend)
Procedure: AR positive VCaP cells were exposed to enzalutamide (5 μM) and CD46 cell surface expression was measured by flow cytometry using the YS5 antibody. MFI: median fluorescence intensity. […] AR positive 22Rv1 cells were exposed to enzalutamide (5 μM) and CD46 cell surface expression was measured by flow cytometry using YS5. As a reference, prostate specific membrane antigen (PSMA) was also measured at the same time. Enzalutamide-induced upregulation was unique to CD46 but not PSMA. MFI: median fluorescence intensity. See right portion of FIG. 1.
AR positive 22Rv1 cells were exposed to enzalutamide (5 μM) and CD46 cell surface expression was measured by flow cytometry using YS5. As a reference, prostate specific membrane antigen (PSMA) was also measured at the same time. Enzalutamide-induced upregulation was unique to CD46 but not PSMA. MFI: median fluorescence intensity. See right portion of FIG. 1.

## CC#C[C@]1(O)CC[C@H]2[C@@H]3CCC4=CC(=O)CCC4=C3[C@@H](c3ccc(N(C)C)cc3)C[C@@]21C [mifepristone]
[1]; mifepristone high concentrations (20 and 50 PM)
  CD46 cell surface expression (MFI): inhibits CD46 cell surface presentation
[2]; 22Rv1 cells, mifepristone 2.5 μM, 37° C., 10 days, Student t test
  CD46 cell surface expression (MFI): not significant

## CNC(=O)c1ccc(N2C(=S)N(c3ccc(C#N)c(C(F)(F)F)c3)C(=O)C2(C)C)cc1F [enzalutamide]
[1]; AR-null Du145 cells, enzalutamide 5 μM, p<0.0001, n=4
  CD46 cell surface expression: increase significantly
[2]; AR positive 22Rv1 cells, enzalutamide 5 μM
  CD46 cell surface expression (MFI): upregulation was unique to CD46
[3]
  CD46 antigen density: increased
[4]
  CD46 cell surface expression (MFI): significantly more CD46 expression than control cells
LNCaP-C4-2B xenografts
  tumor response / overall survival (Kaplan-Meier): resistant to enz treatment alone
[5]
  PSMA expression (MFI): not PSMA

## C[C@]12CC[C@H](O)CC1=CC[C@@H]1[C@@H]2CC[C@]2(C)C(c3cccnc3)=CC[C@@H]12 [abiraterone]
[6]
  increase of CD46 antigen density: Over 2 fold

## COc1ccc(S(=O)(=O)Nc2cc(-c3c(O)ccc4ccccc34)c(O)c3ccccc23)cc1 [C188-9, N-(1′, 2-Dihydroxy-1,2′-binaphthalen-4′-yl)-4-methoxybenzenesulfonamide]
[1]; C188-9 10, 20 and 50 μM
  CD46 cell surface expression (MFI): inhibits CD46 cell surface presentation
[2]; 22Rv1 cells, C188-9 low/mid concentrations (2.5 and 5 μM), 37° C., 10 days
  CD46 cell surface expression (MFI): stimulates CD46 cell surface presentation
[2]; prostate cancer cells (22Rv1, 10 μM, 10 days, single experiment, FIG. 12; Du145, FIG. 13), C188-9 high concentrations (>10 μM)
  CD46 cell surface presentation (MFI): inhibits

B1: CD46 ADC (YS5-MC-vc-PAB-MMAF) (antibody, human IgG1, lambda, V domains shown)
VH: QVQLVQSGGGVVQPGRSLRLACAASGLTVNNYAMHWVRQAPGKGLEWVAVISYDGNNKYYADSVKGRFTISRDNSKNTLYLQMNSLRAEDTAVYYCAKGGGYFDLWGRGTLVTVSS
VL: QSVLTQPPSVSGAPGQRVTISCTGSSSNIGAGYDVHWYQQLPGTAPKLLIYGNNNRPSGVPDRFSGSKSGTSASLAITGLQAEDEADYYCSSYTSGTWLFGGGTKLTVLG
modifications: MC-vc-PAB-MMAF drug-linker conjugated; sites and drug to antibody ratio not stated for this conjugate
[7]
  EC50 of cell killing, LNCaP-C4-2B cells pre-exposed to abiraterone against cells not pre-exposed: 17 fold

B2: YS5 anti-CD46 antibody (antibody, human IgG1, lambda, V domains shown)
VH: B1 VH
VL: B1 VL
notes: also called YS5FL; anti-CD46 antibody YS5
[8]
  binding result: binds
